The structures appear in SMILES notation.

In test [1] the target is PI3-kinase p110-delta/p85-alpha (Homo sapiens) (UniProt P27986+O00329). Nature of the test: Inhibition of PI3K p110delta/p85alpha (unknown origin) at 100 nM using lipid substrate after 40 mins by kinase-glo luminescence assay relative to control. It counts as protein-complex assay.
For test [2], the target named is PI3-kinase p110-delta/p85-alpha (Homo sapiens, UniProt O00329). Briefly: Inhibition of PI3K p110delta/p85alpha (unknown origin) using lipid substrate after 40 mins by kinase-glo luminescence assay. It counts as protein-complex assay. Background: In Kinase-Glo more light means more ATP remaining.
A short description of test [3]: Antiproliferative activity against human RPMI8266 cells after 72 hrs by MTT assay. It counts as functional, cell-based. The following applies: RPMI8266, 72 h.
The subject of another test is Ramos. Briefly: Antiproliferative activity against human Ramos cells after 72 hrs by MTT assay. It counts as functional, cell-based.
The subject of a further test is Raji. Nature of the test: Antiproliferative activity against human Raji cells after 72 hrs by MTT assay. It counts as functional, cell-based. A general note: Tetrazolium assays rely on reduction of a dye to a coloured formazan, in cell work by metabolically active cells.

Chain of PI3-kinase p110-delta/p85-alpha (P27986 whole entry): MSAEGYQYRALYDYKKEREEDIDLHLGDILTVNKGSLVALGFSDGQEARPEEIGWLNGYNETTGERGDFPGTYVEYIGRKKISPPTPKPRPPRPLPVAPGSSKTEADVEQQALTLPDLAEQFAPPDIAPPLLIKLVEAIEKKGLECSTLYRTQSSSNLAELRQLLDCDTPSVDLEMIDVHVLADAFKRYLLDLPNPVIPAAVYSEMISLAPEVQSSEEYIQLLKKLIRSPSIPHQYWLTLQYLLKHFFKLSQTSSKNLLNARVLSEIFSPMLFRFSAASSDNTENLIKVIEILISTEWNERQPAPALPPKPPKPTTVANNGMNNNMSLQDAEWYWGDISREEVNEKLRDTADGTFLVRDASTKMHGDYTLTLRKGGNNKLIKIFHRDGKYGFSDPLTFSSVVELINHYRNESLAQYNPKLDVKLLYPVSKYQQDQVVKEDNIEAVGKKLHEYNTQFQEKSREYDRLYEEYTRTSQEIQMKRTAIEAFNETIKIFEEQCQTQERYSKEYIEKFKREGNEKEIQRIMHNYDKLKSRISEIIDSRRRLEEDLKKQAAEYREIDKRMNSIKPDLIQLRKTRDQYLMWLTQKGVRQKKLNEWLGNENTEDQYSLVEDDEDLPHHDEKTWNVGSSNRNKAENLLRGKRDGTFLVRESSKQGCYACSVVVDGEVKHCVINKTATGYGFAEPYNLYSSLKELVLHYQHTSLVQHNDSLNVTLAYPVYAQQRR
Chain of PI3-kinase p110-delta/p85-alpha (O00329 whole entry): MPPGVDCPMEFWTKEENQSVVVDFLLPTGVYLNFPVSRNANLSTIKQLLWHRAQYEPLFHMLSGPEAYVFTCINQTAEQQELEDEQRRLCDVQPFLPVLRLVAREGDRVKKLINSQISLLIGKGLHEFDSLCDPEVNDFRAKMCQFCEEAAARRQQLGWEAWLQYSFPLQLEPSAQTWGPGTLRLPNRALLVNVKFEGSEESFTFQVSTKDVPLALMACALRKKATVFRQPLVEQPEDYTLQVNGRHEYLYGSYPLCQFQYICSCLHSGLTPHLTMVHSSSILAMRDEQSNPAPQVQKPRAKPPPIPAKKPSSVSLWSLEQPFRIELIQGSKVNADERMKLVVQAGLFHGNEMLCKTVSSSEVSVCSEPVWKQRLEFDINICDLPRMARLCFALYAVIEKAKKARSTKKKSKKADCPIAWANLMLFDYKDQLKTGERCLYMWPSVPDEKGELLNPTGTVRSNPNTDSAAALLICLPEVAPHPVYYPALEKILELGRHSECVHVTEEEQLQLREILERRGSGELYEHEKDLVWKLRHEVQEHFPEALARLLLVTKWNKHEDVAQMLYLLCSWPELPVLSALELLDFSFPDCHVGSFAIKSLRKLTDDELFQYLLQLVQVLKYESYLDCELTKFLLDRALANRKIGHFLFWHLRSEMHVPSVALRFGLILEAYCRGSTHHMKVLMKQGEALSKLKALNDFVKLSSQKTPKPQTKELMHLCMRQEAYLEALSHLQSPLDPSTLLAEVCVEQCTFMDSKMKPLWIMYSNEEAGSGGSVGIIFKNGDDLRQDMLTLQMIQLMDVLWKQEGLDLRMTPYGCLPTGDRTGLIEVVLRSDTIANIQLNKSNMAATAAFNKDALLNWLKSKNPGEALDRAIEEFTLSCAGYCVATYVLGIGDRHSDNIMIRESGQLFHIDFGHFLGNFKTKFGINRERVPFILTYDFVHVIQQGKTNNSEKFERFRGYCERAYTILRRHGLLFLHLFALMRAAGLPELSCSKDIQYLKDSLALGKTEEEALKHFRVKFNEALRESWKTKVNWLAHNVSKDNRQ

One may read the inhibition as the share of the control response that was lost under treatment. The low end stands for a weak effect, the high end for a strong effect. Turning to `COc1ccc(-c2ccc3ncnc(Nc4ccc(C(=O)N5CCOCC5)cc4)c3c2)cn1`, in test [1], the inhibition was determined as 61%.

The compound `COc1ccc(-c2ccc3ncnc(Nc4cccc(C(=O)N5CCOCC5)c4)c3c2)cc1C(N)=O` had an inhibition in test [1] of 21%.

In the case of `COc1ccc(-c2ccc3ncnc(Nc4cccc(C(=O)N5CCN(C)CC5)c4)c3c2)cc1C(N)=O`, the inhibition in test [1] amounted to 33%.

`COc1ccc(-c2ccc3ncnc(Nc4cccc(C(=O)N5CCN(C)CC5)c4)c3c2)cn1` yielded an inhibition in test [1] of 71%.

The compound `COc1cc(C(N)=O)cc(-c2ccc3ncnc(Nc4cccc(C(=O)N5CCOCC5)c4)c3c2)c1` yielded an inhibition in test [1] of 61%.

For `COc1c(C(N)=O)cc(-c2ccc3ncnc(Nc4cccc(C(=O)N5CCOCC5)c4)c3c2)cc1[N+](=O)[O-]`, the inhibition in test [1] is 49%.

With `COc1ccc(-c2ccc3ncnc(Nc4ccc(C(=O)N5CCN(C)CC5)cc4)c3c2)cc1C(N)=O`, in test [1], the inhibition is 12%.

Broadly, the IC50 is the concentration needed to halve the response being measured. In the case of `COc1ncc(-c2ccc3ncnc(Nc4cccc(C(=O)N5CCOCC5)c4)c3c2)cc1C#N`, the inhibition in test [1] came to 93%. In addition, the IC50 in test [2] is 9.3 nM; in test [3], 6610 nM; in the test on Ramos it was greater than 10000 nM; in the test on Raji it was greater than 10000 nM.

As for `COc1ccc(-c2ccc3nccc(Nc4cccc(C(=O)N5CCN(C)CC5)c4)c3c2)cc1C(N)=O`, the inhibition in test [1] worked out at 0%.

Take `COc1ccc(-c2ccc3ncnc(Nc4ccc(C(=O)N5CCOCC5)cc4)c3c2)cc1C(N)=O`: in test [1], the inhibition is 0%.

The compound `NC(=O)c1cc(-c2ccc3ncnc(Nc4cccc(C(=O)N5CCOCC5)c4)c3c2)cc(C(F)(F)F)c1` had an inhibition in test [1] of 91%. For the same compound, the IC50 in test [2] is 9.7 nM; in test [3] it was 1100 nM; in the test with Ramos it was 1060 nM; with Raji, 950 nM.

Consider `CC[C@H](Nc1ncnc2[nH]cnc12)c1nc2cccc(F)c2c(=O)n1-c1ccccc1` [IDELALISIB], for which the inhibition in test [1] was 96%. Also, the IC50 in test [3] was 5490 nM; in the test with Ramos, greater than 10000 nM; in the test with Raji, 9950 nM.

In test [1], `COc1ccc(-c2ccc3nccc(Nc4cccc(C(=O)N5CCN(C)CC5)c4)c3c2)cn1` showed an inhibition of 23%.

Compound `COc1ccc(-c2ccc3ncnc(Nc4cccc(C(=O)N5CCOCC5)c4)c3c2)cn1` had an inhibition in test [1] of 87%.
